# Source: patent US5075303A, “Pyridine derivatives” (John Wyeth & Brother Limited, priority 1989, dated 1991)
# Tests used:
# [1] = target: T1, 5-HT1A receptor (Rattus norvegicus, UniProt P19327); assay: 5-HT1A receptor binding activity in rat hippocampal membrane homogenate
# T1 construct: rat hippocampal membrane homogenate; from tissue; host or cells: rat hippocampus (membrane homogenate)
# T1 sequence (P19327 1-422): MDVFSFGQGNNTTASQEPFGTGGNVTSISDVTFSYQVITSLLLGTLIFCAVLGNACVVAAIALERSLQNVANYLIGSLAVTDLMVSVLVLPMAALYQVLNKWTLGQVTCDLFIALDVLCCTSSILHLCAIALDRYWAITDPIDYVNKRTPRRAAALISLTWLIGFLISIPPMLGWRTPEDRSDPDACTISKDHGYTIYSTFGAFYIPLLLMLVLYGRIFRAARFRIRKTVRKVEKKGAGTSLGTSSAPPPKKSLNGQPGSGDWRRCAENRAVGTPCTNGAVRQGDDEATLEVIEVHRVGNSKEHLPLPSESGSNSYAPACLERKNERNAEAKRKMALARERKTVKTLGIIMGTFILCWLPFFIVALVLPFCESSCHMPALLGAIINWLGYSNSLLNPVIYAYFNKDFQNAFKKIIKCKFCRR
# Protocol: The compounds of the invention were tested for 5 HT1A receptor binding activity in rat hippocampal membrane homogenate by the method of B S Alexander and M D Wood, J Pharm Pharmacol, 1988, 40, 888-891.
# [2] = target: T2, 5-HT1 receptor (Rattus norvegicus, UniProt P19327); assay: 5-HT1 receptor agonist activity in vivo: 5-HT related behaviour in rats following i.v. administration; conditions: iv, calculated by the method of Kimball et al
# T2 construct: 5-HT related behaviour in rats following i.v. administration; from tissue; host or cells: living rat (in vivo test, endogenous receptor)
# T2 sequence (P19327 1-422): T1 sequence (P19327 1-422)
# Protocol: The compounds are evaluated for 5-HT1 receptor agonist activity in vivo by a method involving the assessment of 5-HT related behaviour in rats following i.v. administration of the test compound (M D Tricklebank et al, European Journal of Pharmacol, 1985, 106, 271-282).
# [3] = target: T3, 5HT1A receptor (Cavia porcellus, UniProt A0A286Y074); assay: antagonism of 8-hydroxy-2-(di-n-propylamino)tetralin in the guinea-pig ileum in vitro; format: biochemical
# T3 construct: in the guinea-pig ileum in vitro; from tissue; host or cells: guinea-pig ileum
# T3 sequence (A0A286Y074 1-421): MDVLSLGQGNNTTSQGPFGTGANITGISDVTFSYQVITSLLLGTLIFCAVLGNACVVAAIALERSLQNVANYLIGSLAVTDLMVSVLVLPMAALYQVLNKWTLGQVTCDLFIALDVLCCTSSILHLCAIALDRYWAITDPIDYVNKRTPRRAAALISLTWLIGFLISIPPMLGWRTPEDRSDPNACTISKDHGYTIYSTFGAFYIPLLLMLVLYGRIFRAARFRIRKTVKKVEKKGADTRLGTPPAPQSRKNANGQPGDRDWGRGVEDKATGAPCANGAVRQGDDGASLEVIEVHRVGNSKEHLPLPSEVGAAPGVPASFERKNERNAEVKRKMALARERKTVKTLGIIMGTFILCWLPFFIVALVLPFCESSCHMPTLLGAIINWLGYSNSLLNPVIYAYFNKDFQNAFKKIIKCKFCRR
structure (smiles),measurement,setting,value
"CN(CCC1COc2ccccc2O1)C1CCc2cccnc2C1 (stereo not drawn) [Example 20, 7-Amino-5,6,7,8-tetrahydro N-{2 [2 (2,3 dihydro-1,4-benzodioxinyl)]ethyl}-N-methylquinoline]",IC50,[1],68 nM
"c1cnc2c(c1)CCC(N1CCC1)C2 (stereo not drawn) [Example 50, 7-Azetidino-5,6,7,8-tetrahydroquinoline]",ED50,[2],1.1 mg/kg
same,IC50,[1],136 nM
"CN(CCCCN1C(=O)CC2(CCCC2)CC1=O)C1CCc2cccnc2C1 (stereo not drawn) [Example 16, 8-{4-[N-(5,6,7,8-Tetrahydroquinolin-7 yl) N-methyl]aminobutyl}-8-azaspiro[4.5]decan 7,9-dione]",ED50,[2],0.81 mg/kg
same,pA2,[3],7.7
same,IC50,[1],26 nM
"CCCN(CCC)C1CCc2cccnc2C1 (stereo not drawn) [Example 12, 5,6,7,8-Tetrahydro-7--(1,1-dipropylamino)quinoline]",ED50,[2],0.62 mg/kg
same,IC50,[1],138 nM
"CCCN(CCNC(=O)c1ccc(F)cc1)C1CCc2cccnc2C1 (stereo not drawn) [Example 19, 4-Fluoro-N-[2-[N --(5,6,7,8-tetrahydroquinoin-7 yl)-N'-propyl]aminoethyl}benzamide]",ED50,[2],0.52 mg/kg
same,IC50,[1],9 nM
"CN(C)C1CCc2cccnc2C1 (stereo not drawn) [Example 3, 5,6,7,8-Tetrahydro-7-dimethylaminoquinoline]",IC50,[1],137 nM
CCCN(CC1COc2ccccc2O1)C1CCc2cccnc2C1 (stereo not drawn) [Example 15],IC50,[1],42 nM
"c1cnc2c(c1)CCC(N1CCCC1)C2 (stereo not drawn) [Example 38, 5,6,7,8-Tetrahydro 7-pyrrolidinoquinoline]",ED50,[2],0.57 mg/kg
same,IC50,[1],55 nM
"CN(CCNC(=O)Cc1c(F)cccc1F)C1CCc2cccnc2C1 (stereo not drawn) [Example 35, N-{2-[N'-(5,6,7,8-Tetrahydroquinolin-7 yl)-N'-methyl]aminoethyl}-2,6-difluorophenylacetamide]",IC50,[1],131 nM
